According to patent publication US20120264735A1 (priority 2009, published 2012):

Biological target: T1, c-Met kinase (recombinant c-Met) (Homo sapiens, UniProt P08581)
T1 construct: 0.27 nM recombinant c-Met
Experiment: In vitro kinase assay I (homogeneous time-resolved fluorescence tyrosine kinase assay)
Format: biochemical
In short: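 Biotinylated peptide (0.5 μM) phosphorylated by 0.2 nM recombinant c-Met with 50 μM MgATP, 60 min at room temperature, pH 7.4, 5% DMSO. EDTA stop; HTRF read with Eu-anti-phosphotyrosine antibody and streptavidin-APC. IC50 from 4-parameter logistic fit.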

T1 sequence (P08581 25-1390): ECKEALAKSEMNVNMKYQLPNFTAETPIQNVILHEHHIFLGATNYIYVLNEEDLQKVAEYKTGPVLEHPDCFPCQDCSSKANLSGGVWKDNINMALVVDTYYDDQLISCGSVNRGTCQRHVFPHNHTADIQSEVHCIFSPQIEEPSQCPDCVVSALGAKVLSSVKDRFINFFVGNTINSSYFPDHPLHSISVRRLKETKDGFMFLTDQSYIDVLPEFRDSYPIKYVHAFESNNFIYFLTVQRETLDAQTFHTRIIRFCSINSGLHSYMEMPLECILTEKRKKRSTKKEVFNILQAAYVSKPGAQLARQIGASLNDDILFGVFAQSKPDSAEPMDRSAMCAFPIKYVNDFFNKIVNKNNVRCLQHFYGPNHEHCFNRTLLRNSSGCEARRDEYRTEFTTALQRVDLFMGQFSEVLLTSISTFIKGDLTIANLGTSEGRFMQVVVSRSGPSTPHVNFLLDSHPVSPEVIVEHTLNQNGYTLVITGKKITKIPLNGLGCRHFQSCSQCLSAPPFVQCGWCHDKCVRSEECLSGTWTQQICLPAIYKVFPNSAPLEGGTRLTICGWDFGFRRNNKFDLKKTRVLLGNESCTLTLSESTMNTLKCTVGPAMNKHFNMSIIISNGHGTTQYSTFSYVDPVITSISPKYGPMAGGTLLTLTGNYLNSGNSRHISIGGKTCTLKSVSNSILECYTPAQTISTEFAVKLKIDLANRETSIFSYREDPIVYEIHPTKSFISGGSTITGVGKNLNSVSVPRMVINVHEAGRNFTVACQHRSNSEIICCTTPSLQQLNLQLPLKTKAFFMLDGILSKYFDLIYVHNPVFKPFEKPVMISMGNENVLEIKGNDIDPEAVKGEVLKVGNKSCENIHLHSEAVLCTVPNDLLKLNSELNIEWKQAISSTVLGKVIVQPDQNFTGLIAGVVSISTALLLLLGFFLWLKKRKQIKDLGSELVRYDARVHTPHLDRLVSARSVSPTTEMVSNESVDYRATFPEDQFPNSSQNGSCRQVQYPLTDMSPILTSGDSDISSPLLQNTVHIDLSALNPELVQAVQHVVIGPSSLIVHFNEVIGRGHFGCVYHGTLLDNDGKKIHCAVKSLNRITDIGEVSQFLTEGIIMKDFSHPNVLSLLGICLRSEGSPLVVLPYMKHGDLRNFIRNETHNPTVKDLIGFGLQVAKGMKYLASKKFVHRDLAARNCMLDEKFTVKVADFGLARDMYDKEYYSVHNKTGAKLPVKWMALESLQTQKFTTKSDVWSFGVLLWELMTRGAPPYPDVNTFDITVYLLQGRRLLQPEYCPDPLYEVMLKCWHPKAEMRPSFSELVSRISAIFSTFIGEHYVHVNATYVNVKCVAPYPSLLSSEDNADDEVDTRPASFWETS

Row | IC50 [nM] | Compound
1 | < 100 | CNC(=O)Nc1cccc(Cc2nn(-c3cnn(C)c3)ccc2=O)c1 [Example 487, 1-Methyl-3-(3-{[1-(1-methyl-1H-pyrazol-4-yl)-4-oxo-1,4-dihydropyridazin-3-yl]methyl}phenyl)urea]
2 | < 100 | CCNC(=O)Nc1cccc(Cc2nn(-c3cnn(C)c3)ccc2=O)c1 [Example 488, 1-ethyl-3-(3-{[1-(1-methyl-1H-pyrazol-4-yl)-4-oxo-1,4-dihydropyridazin-3-yl]methyl}phenyl)urea]
3 | < 100 | CCCNC(=O)Nc1cccc(Cc2nn(-c3cnn(C)c3)ccc2=O)c1 [Example 489, 1-(3-{[1-(1-methyl-1H-pyrazol-4-yl)-4-oxo-1,4-dihydropyridazin-3-yl]methyl}phenyl)-3-propylurea]
4 | < 100 | CC(C)CNC(=O)Nc1cccc(Cc2nn(-c3cnn(C)c3)ccc2=O)c1 [Example 491, 1-(2-methylpropyl)-3-(3-{[1-(1-methyl-1H-pyrazol-4-yl)-4-oxo-1,4-dihydropyridazin-3-yl]methyl}phenyl)urea]
5 | 100 to 1000 | Cn1cc(-n2ccc(=O)c(Cc3cccc(NC(=O)NC4CC4)c3)n2)cn1 [Example 492, 1-cyclopropyl-3-(3-{[1-(1-methyl-1H-pyrazol-4-yl)-4-oxo-1,4-dihydropyridazin-3-yl]methyl}phenyl)urea]
6 | < 100 | COCCNC(=O)Nc1cccc(Cc2nn(-c3cnn(C)c3)ccc2=O)c1 [Example 493, 1-(2-methoxyethyl)-3-(3-{[1-(1-methyl-1H-pyrazol-4-yl)-4-oxo-1,4-dihydropyridazin-3-yl]methyl}phenyl)urea]
7 | < 100 | CCCCNC(=O)Nc1cccc(Cc2nn(-c3cnn(C)c3)ccc2=O)c1 [Example 494, 1-butyl-3-(3-{[1-(1-methyl-1H-pyrazol-4-yl)-4-oxo-1,4-dihydropyridazin-3-yl]methyl}phenyl)urea]
8 | < 100 | COC(=O)Nc1cccc(Cc2nn(-c3cnn(C)c3)ccc2=O)c1 [Example 497, Methyl(3-{[1-(1-methyl-1H-pyrazol-4-yl)-4-oxo-1,4-dihydropyridazin-3-yl]methyl}phenyl)carbamate]
9 | < 100 | Cn1cc(-n2ccc(=O)c(Cc3cccc(NC(=O)OCCF)c3)n2)cn1 [Example 499, 2-fluoroethyl (3-{[1-(1-methyl-1H-pyrazol-4-yl)-4-oxo-1,4-dihydropyridazin-3-yl]methyl}phenyl)carbamate]
10 | < 100 | CCCCOC(=O)Nc1cccc(Cc2nn(-c3cnn(C)c3)ccc2=O)c1 [Example 500, Butyl (3-{[1-(1-methyl-1H-pyrazol-4-yl)-4-oxo-1,4-dihydropyridazin-3-yl]methyl}phenyl)carbamate]
11 | < 100 | Cn1cc(-n2ccc(=O)c(Cc3cccc(NC(=O)OCC(C)(C)C)c3)n2)cn1 [Example 501, 2,2-dimethylpropyl (3-{[1-(1-methyl-1H-pyrazol-4-yl)-4-oxo-1,4-dihydropyridazin-3-yl]methyl}phenyl)carbamate]

Further lines, the molecule ahead of its results:

Row | Compound | IC50 [nM]
12 | Cn1cc(-n2ccc(=O)c(Cc3cccc(-c4ncc(C(=O)NCCCN5CCOCC5)cn4)c3)n2)cn1 [Example 482, 2-(3-{[1-(1-methyl-1H-pyrazol-4-yl)-4-oxo-1,4-dihydro-pyridazin-3-yl]methyl}phenyl)-N-(3-morpholin-4-ylpropyl)pyrimidine-5-carboxamide] | < 100
13 | CCNC(=O)c1cnc(-c2cccc(Cc3nn(-c4cnn(C)c4)ccc3=O)c2)nc1 [Example 484, N-ethyl-2-(3-{[1-(1-methyl-1H-pyrazol-4-yl)-4-oxo-1,4-dihydro-pyridazin-3-yl]methyl}phenyl)pyrimidine-5-carboxamide] | < 100
14 | CNC(=O)c1cnc(-c2cccc(Cc3nn(-c4cnn(C)c4)ccc3=O)c2)nc1 [Example 485, N-methyl-2-(3-{[1-(1-methyl-1H-pyrazol-4-yl)-4-oxo-1,4-dihydro-pyridazin-3-yl]methyl}phenyl)pyrimidine-5-carboxamide] | < 100
15 | CCNC(=O)Nc1cccc(Cc2nn(-c3ccccc3)ccc2=O)c1 [Example 486, 1-Ethyl-3-{3-[(4-oxo-1-phenyl-1,4-dihydropyridazin-3-yl)methyl]phenyl}urea] | 1000 to 3000
16 | Cn1cc(-n2ccc(=O)c(Cc3cccc(NC(=O)NCc4ccccc4)c3)n2)cn1 [Example 490, 1-benzyl-3-(3-{[1-(1-methyl-1H-pyrazol-4-yl)-4-oxo-1,4-dihydropyridazin-3-yl]methyl}phenyl)urea] | < 100
17 | COc1ccc(CNC(=O)Nc2cccc(Cc3nn(-c4cnn(C)c4)ccc3=O)c2)cc1 [Example 495, 1-(4-methoxybenzyl)-3-(3-{[1-(1-methyl-1H-pyrazol-4-yl)-4-oxo-1,4-dihydropyridazin-3-yl]methyl}phenyl)urea] | < 100
18 | O=C(NCCN1CCOCC1)Nc1cccc(Cc2nn(-c3ccc(F)c(F)c3)ccc2=O)c1 [Example 496, 1-(3-{[1-(3,4-difluorophenyl)-4-oxo-1,4-dihydropyridazin-3-yl]methyl}phenyl)-3-(2-morpholin-4-ylethyl)urea] | < 100
19 | Cn1cc(-n2ccc(=O)c(Cc3cccc(NC(=O)OCc4ccccc4)c3)n2)cn1 [Example 498, benzyl(3-{[1-(1-methyl-1H-pyrazol-4-yl)-4-oxo-1,4-dihydropyridazin-3-yl]methyl}phenyl)carbamate] | < 100
20 | COCCOC(=O)Nc1cccc(Cc2nn(-c3cccc(C#N)c3)ccc2=O)c1 [Example 502, 2-methoxyethyl (3-{[1-(3-cyanophenyl)-4-oxo-1,4-dihydropyridazin-3-yl]methyl}phenyl)carbamate] | < 100
21 | COCCOC(=O)Nc1cccc(Cc2nn(-c3cc(F)c(F)c(F)c3)ccc2=O)c1 [Example 503, 2-methoxyethyl (3-{[4-oxo-1-(3,4,5-trifluorophenyl)-1,4-dihydropyridazin-3-yl]methyl}phenyl)carbamate] | < 100
22 | CCOC(=O)Nc1cccc(Cc2nn(-c3ccc(F)c(F)c3)ccc2=O)c1 [Example 504, ethyl (3-{[1-(3,4-difluorophenyl)-4-oxo-1,4-dihydropyridazin-3-yl]methyl}phenyl)carbamate] | < 100
23 | CC(C)COC(=O)Nc1cccc(Cc2nn(-c3ccc(F)c(F)c3)ccc2=O)c1 [Example 505, 2-methylpropyl (3-{[1-(3,4-difluorophenyl)-4-oxo-1,4-dihydropyridazin-3-yl]methyl}phenyl)carbamate] | < 100
24 | COCCOC(=O)Nc1cccc(Cc2nn(-c3ccc(F)c(F)c3)ccc2=O)c1 [Example 506, 2-methoxyethyl (3-{[1-(3,4-difluorophenyl)-4-oxo-1,4-dihydropyridazin-3-yl]methyl}phenyl)carbamate] | < 100
25 | COCCOC(=O)Nc1cccc(Cc2nn(-c3cc(F)cc(F)c3)ccc2=O)c1 [Example 507, 2-methoxyethyl (3-{[1-(3,5-difluorophenyl)-4-oxo-1,4-dihydropyridazin-3-yl]methyl}phenyl)carbamate] | < 100
26 | COCCOC(=O)Nc1cccc(Cc2nn(-c3ccc(C#N)cc3)ccc2=O)c1 [Example 508, 2-methoxyethyl (3-{[1-(4-cyanophenyl)-4-oxo-1,4-dihydropyridazin-3-yl]methyl}phenyl)carbamate] | < 100
27 | COCCOC(=O)Nc1cccc(Cc2nn(-c3cc(F)cc(Cl)c3)ccc2=O)c1 [Example 509, 2-methoxyethyl (3-{[1-(3-chloro-5-fluorophenyl)-4-oxo-1,4-dihydropyridazin-3-yl]methyl}phenyl)carbamate] | < 100
28 | Cn1cc(-n2ccc(=O)c(Cc3cccc(NC(=O)OCCn4ccnc4)c3)n2)cn1 [Example 510, 2-(1H-Imidazol-1-yl)ethyl(3-{[1-(1-methyl-1H-pyrazol-4-yl)-4-oxo-1,4-dihydropyridazin-3-yl]methyl}phenyl)carbamate] | < 100
29 | CN1CCN(CCCOC(=O)Nc2cccc(Cc3nn(-c4cc(F)c(F)c(F)c4)ccc3=O)c2)CC1 [Example 511, 3-(4-methylpiperazin-1-yl)propyl(3-{[4-oxo-1-(3,4,5-trifluorophenyl)-1,4-dihydropyridazin-3-yl]methyl}phenyl)carbamate] | < 100
30 | O=C(Nc1cccc(Cc2nn(-c3cc(F)c(F)c(F)c3)ccc2=O)c1)OCCN1CCC(C(=O)O)CC1 [Example 512, 1-(2-{[(3-{[4-oxo-1-(3,4,5-trifluorophenyl)-1,4-dihydropyridazin-3-yl]methyl}phenyl)carbamoyl]oxy}ethyl)piperidine-4-carboxylic acid] | < 100
31 | CC(C)(O)CCOC(=O)Nc1cccc(Cc2nn(-c3cc(F)c(F)c(F)c3)ccc2=O)c1 [Example 514, 3-hydroxy-3-methylbutyl (3-{[4-oxo-1-(3,4,5-trifluorophenyl)-1,4-dihydropyridazin-3-yl]methyl}phenyl)carbamate] | < 100
32 | O=C(Nc1cccc(Cc2nn(-c3cc(F)c(F)c(F)c3)ccc2=O)c1)OCCN1CCS(=O)(=O)CC1 [Example 515, 2-(1,1-dioxidothio-morpholin-4-yl)ethyl (3-{[4-oxo-1-(3,4,5-trifluorophenyl)-1,4-dihydropyridazin-3-yl]methyl}phenyl)carbamate] | < 100
33 | CN1CCN(CCOC(=O)Nc2cccc(Cc3nn(-c4cc(F)c(F)c(F)c4)ccc3=O)c2)CC1 [Example 516, 2-(4-methylpiperazin-1-yl)ethyl (3-{[4-oxo-1-(3,4,5-trifluorophenyl)-1,4-dihydropyridazin-3-yl]methyl}phenyl)carbamate] | < 100
34 | O=C(Nc1cccc(Cc2nn(-c3cc(F)cc(F)c3)ccc2=O)c1)OCCN1CCS(=O)(=O)CC1 [Example 517, 2-(1,1-dioxidothio-morpholin-4-yl)ethyl (3-{[1-(3,5-difluorophenyl)-4-oxo-1,4-dihydropyridazin-3-yl]methyl}phenyl)carbamate] | < 100
35 | CN1CCN(CCCOC(=O)Nc2cccc(Cc3nn(-c4cc(F)cc(F)c4)ccc3=O)c2)CC1 [Example 518] | < 100
36 | CN1CCN(CCOC(=O)Nc2cccc(Cc3nn(-c4cc(F)cc(F)c4)ccc3=O)c2)CC1 [Example 519, 2-(4-methylpiperazin-1-yl)ethyl (3-{[1-(3,5-difluorophenyl)-4-oxo-1,4-dihydropyridazin-3-yl]methyl}phenyl)carbamate] | < 100
